The text below walks through data of ChEMBL document CHEMBL1201862, “PubChem BioAssay data set” (2004).

Assay [1] deals with T1, DNA repair protein RAD52 homolog (Homo sapiens, UniProt P43351).
T1 sequence (P43351 whole entry): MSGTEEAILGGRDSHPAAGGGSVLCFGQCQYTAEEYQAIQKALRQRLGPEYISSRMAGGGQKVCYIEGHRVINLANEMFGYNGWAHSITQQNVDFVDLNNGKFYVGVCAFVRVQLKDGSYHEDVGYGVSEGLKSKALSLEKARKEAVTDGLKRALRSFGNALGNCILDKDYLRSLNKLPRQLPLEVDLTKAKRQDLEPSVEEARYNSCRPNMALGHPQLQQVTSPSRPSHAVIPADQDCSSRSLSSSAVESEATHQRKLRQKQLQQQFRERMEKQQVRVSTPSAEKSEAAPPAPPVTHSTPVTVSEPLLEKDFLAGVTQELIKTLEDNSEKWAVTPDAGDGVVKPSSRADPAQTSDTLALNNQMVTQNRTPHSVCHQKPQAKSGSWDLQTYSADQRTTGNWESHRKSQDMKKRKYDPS
Format: functional, biochemical.

Assay [2] deals with T2, DNA repair and recombination protein RAD54-like (Homo sapiens, UniProt Q92698).
T2 sequence (Q92698 whole entry): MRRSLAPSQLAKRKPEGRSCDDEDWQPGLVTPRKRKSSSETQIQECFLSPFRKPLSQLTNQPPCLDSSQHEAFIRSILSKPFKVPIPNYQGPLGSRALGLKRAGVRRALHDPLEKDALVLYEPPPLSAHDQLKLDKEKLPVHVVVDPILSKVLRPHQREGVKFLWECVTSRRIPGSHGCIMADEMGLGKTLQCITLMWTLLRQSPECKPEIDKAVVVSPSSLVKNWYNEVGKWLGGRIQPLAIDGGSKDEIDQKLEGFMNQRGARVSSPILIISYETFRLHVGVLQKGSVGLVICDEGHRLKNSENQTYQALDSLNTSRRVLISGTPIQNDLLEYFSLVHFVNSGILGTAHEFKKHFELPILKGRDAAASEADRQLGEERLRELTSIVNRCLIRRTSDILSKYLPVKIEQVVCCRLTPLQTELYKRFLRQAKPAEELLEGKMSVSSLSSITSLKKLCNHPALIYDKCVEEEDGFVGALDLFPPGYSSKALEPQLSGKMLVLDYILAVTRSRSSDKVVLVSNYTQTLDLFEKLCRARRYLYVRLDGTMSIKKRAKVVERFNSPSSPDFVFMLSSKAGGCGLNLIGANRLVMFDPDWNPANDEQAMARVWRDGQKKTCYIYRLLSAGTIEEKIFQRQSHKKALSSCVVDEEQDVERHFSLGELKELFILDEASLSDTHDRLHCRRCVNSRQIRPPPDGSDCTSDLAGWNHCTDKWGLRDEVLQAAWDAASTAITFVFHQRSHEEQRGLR
Description: RAD54 Holliday junction migration blockers – biochemical, fluorescence, cherry-picked samples, dose series, confirmation (AID 651657). Format: functional.

Assay [3] addresses T3, Type-1 angiotensin II receptor (Homo sapiens, UniProt P30556).
T3 sequence (P30556 whole entry): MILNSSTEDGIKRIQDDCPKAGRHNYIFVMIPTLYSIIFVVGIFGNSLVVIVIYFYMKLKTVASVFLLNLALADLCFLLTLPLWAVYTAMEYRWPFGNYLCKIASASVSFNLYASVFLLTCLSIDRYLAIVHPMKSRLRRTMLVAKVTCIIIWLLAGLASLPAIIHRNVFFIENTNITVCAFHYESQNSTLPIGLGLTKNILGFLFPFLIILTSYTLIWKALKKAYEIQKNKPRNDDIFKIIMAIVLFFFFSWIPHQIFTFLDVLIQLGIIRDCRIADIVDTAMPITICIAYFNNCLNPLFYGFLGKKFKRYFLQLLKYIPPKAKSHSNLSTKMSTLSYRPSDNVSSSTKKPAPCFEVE
Description: antagonism of angiotensin II type 1 receptor – cell-based, uHTS hits, selectivity assay for APJ receptor antagonist project, dose response (AID 463214).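 Note: antagonist potency against angiotensin II stimulated AT1 response.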 Format: functional.

The target of assay [4] is Beta-galactosidase (Escherichia coli, UniProt Q8VNN2). As to the kind of experiment: PubChem AID 485352. Format: functional.
Sequence of Beta-galactosidase (Q8VNN2 whole entry): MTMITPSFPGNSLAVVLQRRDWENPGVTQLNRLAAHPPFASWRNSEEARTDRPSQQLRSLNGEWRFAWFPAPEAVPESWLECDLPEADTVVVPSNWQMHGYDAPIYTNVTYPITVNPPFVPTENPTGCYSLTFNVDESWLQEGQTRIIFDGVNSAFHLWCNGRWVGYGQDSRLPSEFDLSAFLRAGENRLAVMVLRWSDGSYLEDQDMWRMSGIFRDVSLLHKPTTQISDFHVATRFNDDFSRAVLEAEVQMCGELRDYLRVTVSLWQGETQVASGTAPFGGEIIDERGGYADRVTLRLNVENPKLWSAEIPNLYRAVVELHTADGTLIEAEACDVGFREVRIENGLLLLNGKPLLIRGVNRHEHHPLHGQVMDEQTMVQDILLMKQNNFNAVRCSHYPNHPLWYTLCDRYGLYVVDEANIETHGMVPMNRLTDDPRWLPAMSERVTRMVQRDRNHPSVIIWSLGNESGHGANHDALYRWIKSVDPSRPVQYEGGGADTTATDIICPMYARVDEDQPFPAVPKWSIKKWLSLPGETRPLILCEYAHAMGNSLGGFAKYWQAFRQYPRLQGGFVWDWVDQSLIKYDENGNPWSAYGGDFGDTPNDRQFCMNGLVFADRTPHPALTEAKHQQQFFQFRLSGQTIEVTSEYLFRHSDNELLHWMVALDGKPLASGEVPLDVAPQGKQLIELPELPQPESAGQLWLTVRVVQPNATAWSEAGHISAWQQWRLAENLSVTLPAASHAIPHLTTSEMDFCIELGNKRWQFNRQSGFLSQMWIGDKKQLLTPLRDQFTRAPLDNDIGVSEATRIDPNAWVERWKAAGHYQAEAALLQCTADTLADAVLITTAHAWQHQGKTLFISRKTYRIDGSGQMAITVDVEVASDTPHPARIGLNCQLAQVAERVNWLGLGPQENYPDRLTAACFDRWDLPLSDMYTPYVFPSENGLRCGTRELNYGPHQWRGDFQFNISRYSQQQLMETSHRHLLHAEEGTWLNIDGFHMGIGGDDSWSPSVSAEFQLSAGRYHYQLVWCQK
Assay [5] can be described thus: viability of uninfected HEp-2 cells – cell-based, HTS, cytotoxicity control for RSV inhibitor project, dose response (AID 2410). It is filed as functional. Conditions: human respiratory syncytial virus.
In assay [6] the test system is Streptococcus. Description: GAS UMAA2166 growth inhibition – luminescence, BacTiterGlo, counter-screen for streptokinase expression inhibitor project, dose response (AID 1915).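 Note: potency for reduction of bacterial viability or growth.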 Format: functional, organism-based.
In assay [7] the target is T4, Streptokinase A (Streptococcus pyogenes serotype M1, UniProt P10520).
T4 sequence (P10520 whole entry): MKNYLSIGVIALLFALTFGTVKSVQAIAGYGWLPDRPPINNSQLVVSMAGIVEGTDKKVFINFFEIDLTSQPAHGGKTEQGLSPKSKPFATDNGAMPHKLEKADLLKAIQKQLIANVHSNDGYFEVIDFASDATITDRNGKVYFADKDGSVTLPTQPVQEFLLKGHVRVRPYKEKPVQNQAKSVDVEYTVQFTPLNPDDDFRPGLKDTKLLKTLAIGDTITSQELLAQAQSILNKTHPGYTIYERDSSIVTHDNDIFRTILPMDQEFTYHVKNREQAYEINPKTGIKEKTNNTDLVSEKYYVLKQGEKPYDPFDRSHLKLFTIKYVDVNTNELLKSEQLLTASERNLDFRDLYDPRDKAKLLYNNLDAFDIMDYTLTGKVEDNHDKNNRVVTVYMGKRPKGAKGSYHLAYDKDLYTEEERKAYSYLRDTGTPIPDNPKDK
As to the kind of experiment: viability-normalized secreted streptokinase activity reduction – plasminogen activation absorbance, OD405, dose response (AID 1914).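 Note: secreted streptokinase activity via plasminogen activation per viability signal from cell pellet.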 It is filed as functional, Streptococcus pyogenes M1 GAS.

Assay [8] concerns the target Dual specificity tyrosine-phosphorylation-regulated kinase 1A (Rattus norvegicus, UniProt Q63470). It is filed as biochemical, Homo sapiens.
Assay [9] has as its system Streptococcus sp. 'group A'. Description: Streptococcus pyogenes SK(-)GAS viability under kanamycin – luminescence, BacTiterGlo, confirmation, counter-screen for streptokinase expression inhibitor project, dose response (AID 1900). Format: functional, organism-based. Background: A counterscreen serves to expose hits that act by an unwanted route or on another target.
Assay [10] in a line: cells.
In assay [11] the target is T5, Long-chain-fatty-acid--AMP ligase FadD28 (Mycobacterium tuberculosis, UniProt P9WQ59).
T5 sequence (P9WQ59 whole entry): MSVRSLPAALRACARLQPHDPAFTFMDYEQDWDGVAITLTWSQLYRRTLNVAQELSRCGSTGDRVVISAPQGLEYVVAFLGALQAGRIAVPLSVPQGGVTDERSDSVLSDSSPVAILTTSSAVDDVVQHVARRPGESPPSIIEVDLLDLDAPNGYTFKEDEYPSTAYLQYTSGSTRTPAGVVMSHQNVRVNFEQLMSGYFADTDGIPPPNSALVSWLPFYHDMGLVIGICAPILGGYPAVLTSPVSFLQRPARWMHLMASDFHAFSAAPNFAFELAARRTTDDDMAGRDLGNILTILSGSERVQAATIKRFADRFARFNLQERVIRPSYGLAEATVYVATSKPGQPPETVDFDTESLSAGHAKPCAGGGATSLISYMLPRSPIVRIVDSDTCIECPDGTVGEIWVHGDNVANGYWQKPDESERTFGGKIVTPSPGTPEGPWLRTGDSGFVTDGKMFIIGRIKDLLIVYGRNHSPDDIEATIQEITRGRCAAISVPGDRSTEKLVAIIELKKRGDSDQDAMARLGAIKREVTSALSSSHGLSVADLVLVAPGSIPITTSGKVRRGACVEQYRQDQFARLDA
As to the kind of experiment: Fluorescence polarization aasay to screen for inhibitors that compete for the binding of FadD28 to a bisubstrate Measured in Biochemical System Using Plate Reader - 2147-01_Inhibitor_Dose_CherryPick_Activity. It is filed as functional, Mycobacterium tuberculosis H37Rv.

Assay [12] deals with Nuclear receptor subfamily 5 group A member 2 (Homo sapiens, UniProt O00482). Format: functional, cell-based.
Sequence of Nuclear receptor subfamily 5 group A member 2 (O00482 whole entry): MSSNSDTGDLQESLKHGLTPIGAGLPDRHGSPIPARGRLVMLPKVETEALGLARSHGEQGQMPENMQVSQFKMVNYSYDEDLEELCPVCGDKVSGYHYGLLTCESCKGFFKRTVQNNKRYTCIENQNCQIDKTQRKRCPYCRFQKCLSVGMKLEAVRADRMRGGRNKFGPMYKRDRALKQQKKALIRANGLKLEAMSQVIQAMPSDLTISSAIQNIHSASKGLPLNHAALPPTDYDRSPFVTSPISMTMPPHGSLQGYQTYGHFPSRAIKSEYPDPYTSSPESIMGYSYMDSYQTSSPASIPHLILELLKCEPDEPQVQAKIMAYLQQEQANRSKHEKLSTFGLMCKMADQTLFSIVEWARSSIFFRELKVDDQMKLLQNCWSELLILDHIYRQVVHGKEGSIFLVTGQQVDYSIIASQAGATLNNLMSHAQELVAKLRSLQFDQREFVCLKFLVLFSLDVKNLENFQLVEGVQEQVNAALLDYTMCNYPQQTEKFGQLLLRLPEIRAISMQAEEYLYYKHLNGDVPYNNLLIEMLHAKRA
Assay [13] can be described thus: NIH3T3 cell viability loss – ATP luminescence, mouse fibroblasts, counter-screen, dose response (AID 2010).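 Note: cells exposed to compound for about 90 hours before reading.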 Format: functional, cell-based.
Assay [14] in a line: Trypanosoma cruzi growth suppression in host cells – NIH3T3 host cells, beta-gal luminescence, confirmation (AID 2044).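 Note: intracellular parasites grown in NIH/3T3 mouse fibroblasts as host cells; luminescent beta-galactosidase reporter signal from transgenic T. cruzi replicating inside host cells; inhibitors lower the luminescence signal.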 It is filed as functional, cell-based.
Assay [15] can be described thus: nonselective StAR promoter luciferase inhibitors – cell-based, luminescence, luciferase reporter, counter-screen for LRH-1 inverse agonist project, dose response (AID 651969). It is filed as functional. Background: Reporter assays use an easily measured gene product as a stand-in for the process of interest.
The target of assay [16] is Steroidogenic factor 1 (Homo sapiens, UniProt Q13285). Description: Counterscreen for inverse agonists of the liver receptor homolog-1 (LRH-1; NR5A2): Luminescence-based cell-based high throughput dose response assay to identify inverse agonists of the Steroidogenic Factor 1 Nuclear Receptor (SF1; NR5A1). It is filed as functional.
Sequence of Steroidogenic factor 1 (Q13285 whole entry): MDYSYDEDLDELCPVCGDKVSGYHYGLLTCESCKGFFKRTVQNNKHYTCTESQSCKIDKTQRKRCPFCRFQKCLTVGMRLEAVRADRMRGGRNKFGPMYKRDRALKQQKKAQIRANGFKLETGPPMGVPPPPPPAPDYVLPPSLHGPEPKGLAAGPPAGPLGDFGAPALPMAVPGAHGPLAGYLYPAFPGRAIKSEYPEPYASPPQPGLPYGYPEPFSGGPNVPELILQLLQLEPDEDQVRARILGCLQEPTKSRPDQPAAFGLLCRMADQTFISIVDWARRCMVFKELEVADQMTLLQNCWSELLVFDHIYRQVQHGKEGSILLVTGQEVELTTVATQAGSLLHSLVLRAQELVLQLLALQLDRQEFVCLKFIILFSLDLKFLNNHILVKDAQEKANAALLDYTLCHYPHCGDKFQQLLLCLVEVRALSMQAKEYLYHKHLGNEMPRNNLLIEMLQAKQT
Assay [17] has as its target Heat shock protein HSP 90-alpha (Homo sapiens, UniProt P07900). Format: functional, organism-based.
Assay [18] addresses Cytochrome P450 2D6 (Homo sapiens, UniProt P10635).
Assay [19] deals with Cytochrome P450 2C19 (Homo sapiens, UniProt P33261). Description: Cytochrome panel assay with activity outcomes. Panel member name: p450-cyp2c19 Compounds with AC50 equal or less than 10 uM are considered active. Format: functional. The note with it: read-out: AC50.
Sequence of Cytochrome P450 2C19 (P33261 whole entry): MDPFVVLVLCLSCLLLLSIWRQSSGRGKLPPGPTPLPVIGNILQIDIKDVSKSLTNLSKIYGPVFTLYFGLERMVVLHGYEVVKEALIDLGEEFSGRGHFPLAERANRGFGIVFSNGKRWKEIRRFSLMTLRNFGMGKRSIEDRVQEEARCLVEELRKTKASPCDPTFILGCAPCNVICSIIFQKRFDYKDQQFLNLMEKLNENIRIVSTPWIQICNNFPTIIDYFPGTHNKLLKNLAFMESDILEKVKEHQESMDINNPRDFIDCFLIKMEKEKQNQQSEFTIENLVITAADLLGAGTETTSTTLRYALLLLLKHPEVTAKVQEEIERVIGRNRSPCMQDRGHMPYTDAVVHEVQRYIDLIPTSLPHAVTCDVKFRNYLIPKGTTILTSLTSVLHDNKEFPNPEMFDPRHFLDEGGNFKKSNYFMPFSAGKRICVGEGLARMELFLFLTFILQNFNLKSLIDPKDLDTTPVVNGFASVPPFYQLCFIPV
The target of assay [20] is T6, Fatty acid synthase (Homo sapiens, UniProt P49327). As to the kind of experiment: inhibition of human FAS-TE enzyme activity – biochemical, kinetic fluorescence intensity, dose response (AID 624326).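 Note: rate of fluorescence rise from hydrolysis of a fluorogenic O-methyl fluorescein ester substrate.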 It is filed as functional.
T6 sequence (P49327 whole entry): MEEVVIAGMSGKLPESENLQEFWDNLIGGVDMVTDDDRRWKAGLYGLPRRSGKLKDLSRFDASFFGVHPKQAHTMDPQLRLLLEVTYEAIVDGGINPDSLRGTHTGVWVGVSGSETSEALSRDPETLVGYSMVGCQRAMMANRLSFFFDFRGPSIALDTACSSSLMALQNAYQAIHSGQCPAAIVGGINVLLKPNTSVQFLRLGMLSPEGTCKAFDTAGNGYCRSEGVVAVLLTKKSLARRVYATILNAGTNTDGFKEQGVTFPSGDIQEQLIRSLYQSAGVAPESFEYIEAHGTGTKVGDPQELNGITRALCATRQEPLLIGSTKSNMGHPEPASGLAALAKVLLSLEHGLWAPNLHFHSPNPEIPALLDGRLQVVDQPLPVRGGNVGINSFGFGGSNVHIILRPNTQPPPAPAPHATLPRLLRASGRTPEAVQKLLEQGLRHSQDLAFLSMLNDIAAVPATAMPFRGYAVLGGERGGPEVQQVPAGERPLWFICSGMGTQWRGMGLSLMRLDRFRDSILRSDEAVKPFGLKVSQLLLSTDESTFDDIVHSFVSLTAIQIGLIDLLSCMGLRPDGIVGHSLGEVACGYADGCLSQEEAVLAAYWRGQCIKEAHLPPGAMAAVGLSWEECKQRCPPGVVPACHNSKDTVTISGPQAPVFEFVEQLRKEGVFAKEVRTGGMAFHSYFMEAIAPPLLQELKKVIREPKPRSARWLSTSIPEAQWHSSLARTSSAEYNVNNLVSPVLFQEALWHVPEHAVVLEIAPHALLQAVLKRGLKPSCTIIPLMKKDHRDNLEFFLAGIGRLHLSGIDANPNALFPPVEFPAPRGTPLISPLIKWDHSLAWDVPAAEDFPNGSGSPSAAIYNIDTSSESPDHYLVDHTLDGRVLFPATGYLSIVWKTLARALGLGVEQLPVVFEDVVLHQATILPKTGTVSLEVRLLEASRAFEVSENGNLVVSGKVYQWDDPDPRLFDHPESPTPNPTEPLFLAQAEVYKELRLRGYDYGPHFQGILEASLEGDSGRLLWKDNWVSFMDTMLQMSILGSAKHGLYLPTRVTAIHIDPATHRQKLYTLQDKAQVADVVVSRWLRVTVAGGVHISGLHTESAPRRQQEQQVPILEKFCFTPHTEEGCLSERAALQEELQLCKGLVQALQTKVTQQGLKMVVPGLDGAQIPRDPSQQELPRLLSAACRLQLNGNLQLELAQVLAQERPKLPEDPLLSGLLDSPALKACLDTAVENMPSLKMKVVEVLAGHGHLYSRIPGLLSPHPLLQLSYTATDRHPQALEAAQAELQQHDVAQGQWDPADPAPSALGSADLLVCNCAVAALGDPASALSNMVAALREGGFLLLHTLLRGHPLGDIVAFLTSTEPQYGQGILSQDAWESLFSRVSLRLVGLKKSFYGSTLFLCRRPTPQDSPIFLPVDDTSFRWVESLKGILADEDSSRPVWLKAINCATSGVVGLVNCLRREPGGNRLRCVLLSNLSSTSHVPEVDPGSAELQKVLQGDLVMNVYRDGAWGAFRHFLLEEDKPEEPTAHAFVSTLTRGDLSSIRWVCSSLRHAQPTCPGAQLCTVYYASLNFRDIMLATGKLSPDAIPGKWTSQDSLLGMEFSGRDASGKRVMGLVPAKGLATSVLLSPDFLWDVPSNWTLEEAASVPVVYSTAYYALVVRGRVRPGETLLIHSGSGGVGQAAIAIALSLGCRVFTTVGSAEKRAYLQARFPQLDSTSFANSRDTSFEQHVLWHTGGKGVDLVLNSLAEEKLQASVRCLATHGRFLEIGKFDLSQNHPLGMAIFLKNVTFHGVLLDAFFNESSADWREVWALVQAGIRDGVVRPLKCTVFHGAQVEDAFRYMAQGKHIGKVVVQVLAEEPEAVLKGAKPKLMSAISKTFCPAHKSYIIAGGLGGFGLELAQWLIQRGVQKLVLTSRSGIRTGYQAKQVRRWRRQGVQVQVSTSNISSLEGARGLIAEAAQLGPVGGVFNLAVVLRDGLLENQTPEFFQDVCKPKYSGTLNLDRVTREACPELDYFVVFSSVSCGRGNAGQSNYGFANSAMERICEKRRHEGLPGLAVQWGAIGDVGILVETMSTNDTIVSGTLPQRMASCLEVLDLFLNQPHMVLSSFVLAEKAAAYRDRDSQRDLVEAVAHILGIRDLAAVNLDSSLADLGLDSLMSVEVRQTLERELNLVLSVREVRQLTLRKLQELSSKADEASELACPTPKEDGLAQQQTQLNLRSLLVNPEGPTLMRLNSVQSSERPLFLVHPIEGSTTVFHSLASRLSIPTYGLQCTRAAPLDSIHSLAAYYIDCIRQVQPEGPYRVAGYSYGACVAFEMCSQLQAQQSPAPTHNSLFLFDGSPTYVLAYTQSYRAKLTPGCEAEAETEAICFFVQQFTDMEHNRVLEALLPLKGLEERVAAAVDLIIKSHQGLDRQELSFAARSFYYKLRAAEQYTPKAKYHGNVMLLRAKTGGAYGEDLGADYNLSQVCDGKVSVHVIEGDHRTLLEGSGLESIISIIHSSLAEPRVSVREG
The target in assay [21] is T6, Fatty acid synthase. Description: inhibition of human FAS-TE enzyme activity – biochemical, endpoint fluorescence intensity, uHTS hits, dose response (AID 624327).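 Note: fluorescence from hydrolysis of an O-methyl fluorescein acyl ester substrate by the enzyme.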 Format: functional.
Assay [22] can be described thus: HEK-293T viability loss after treatment – luminescence, T-cell screen hits, cytotoxicity control for TCR NF-kB inhibitor project, dose response (AID 489026).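 Note: cells exposed to compound about 14 hours before the viability readout.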 Format: functional, cell-based.
Assay [23] can be described thus: bead-based luminescence quenchers, dual-tagged ARNT – biochemical, AlphaScreen, cherry-pick, artefact control for ARNT-TACC3 interaction inhibitor project, dose response (AID 651705).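 Note: AlphaScreen bead proximity signal that flags compounds interfering with the detection technology; potency reflects signal decrease which marks the compound as an assay artifact.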 It is filed as functional.

The source made the active and inactive calls. A value given as a limit tells only on which side of the number the result lay.

As usually defined, the AC50 is the concentration giving half of the maximal activity seen. Consider `Cc1c(C)n(CCN(C)C)c2ccc(C(=O)OCCN(C)C)cc12`, for which the AC50 is 1.31 µM (active) in assay [1] and 8.41 µM (active) in assay [2].

The term IC50 denotes the point on the concentration scale where inhibition reaches its midpoint. As usually defined, the EC50 is the concentration that produces a half-maximal response. Regarding `CC(C)c1nc(C#N)c(NN)o1`, the IC50 in assay [3] is recorded as 25.3 µM (not active). Also, the EC50 in [4] is > 40 µM (inactive).

Usually CC50 stands for the concentration that lowers cell viability or growth by half. On to `COc1ccc2c(c1)C(=NNc1ccc(C(=O)O)cc1)c1cc(OC)ccc1-2`, for which the CC50 in [5] was 13.7 µM (active). Further, the EC50 in [6] is 12.4 µM (active); in [7], > 150 µM (not active); in assay [9] it was 6.28 µM (active). Moreover, the AC50 in assay [8] is 0.02 µM (active); in assay [11], 88 µM (active). Also, the IC50 in assay [10] is 10.8 µM (active).

Regarding `COc1ccc(NS(=O)(=O)c2ccc(OCC(=O)N3CCN(C)CC3)cc2)cc1Cl`, the results for the IC50 in assay [12], in assay [15] and in assay [16] were 9.48 µM (active), 35.9 µM (inactive) and 5.92 µM (active), respectively. Further, the EC50 was > 30 µM (not active) in [13] and 0.524 µM (active) in assay [14].

`O=C(/C=C/c1cccc(C(F)(F)F)c1)Nc1cccc(C(F)(F)F)c1`: the results for the EC50 in assay [6], in [7] and in assay [9] were 4.93 µM (active), > 50 µM (not active) and 4.38 µM (active), respectively. Moreover, the AC50 in assay [17] was 4.19 µM (active).

In the case of `Cc1cc(C)c2c(N=NN(C)C)[nH]nc2n1`, the results for the AC50 in assay [17], in assay [18] and in [19] were 3.96 µM (active), 14.1 µM (inconclusive) and 39.8 µM (inconclusive), respectively.

`COc1ccc(NC(=O)CN2C(=O)NC3(CCCC3)C2=O)cc1`: the IC50 in [12], in assay [15] and in assay [16] was 35.9 µM (inactive) each time.

With `CCC(C(=O)NC1CCCCC1)n1c(SCc2ccccc2F)nc2ccncc21` (stereo not given), in assay [11], the AC50 was > 100 µM (inactive).

`CCN(CC)C1CC(=O)N(c2ccc(Br)cc2)C1=O` (stereo not given): the AC50 in assay [17] is 4.04 µM (active).

As for `O=C(CN1C(=O)S/C(=C\c2cc(Cl)c(O)c(Cl)c2)C1=O)Nc1ccccc1`, the AC50 in assay [11] is 3.49 µM (active).

For the compound `O=C(N/C(=C\c1ccc(Br)cc1)C(=O)N1CCOCC1)c1ccc([N+](=O)[O-])cc1`, the IC50 was 0.286 µM (active) in assay [20] and 0.262 µM (active) in [21].

Take `COc1ccc(OC)c(COC(=O)c2cc([N+](=O)[O-])ccc2N2CCOCC2)c1`: the IC50 in assay [20] was 15.4 µM (active); in [22], > 80 µM (inactive); in assay [21], 11.4 µM (active).

For the compound `C/C=C/c1ccc([C@@H]2[C@H](CO)N(Cc3ccccn3)[C@H]2CNC(C)=O)cc1`, the AC50 in assay [23] was 83.2 µM (active).

Regarding `COc1cc(/C=N/NC(N)=S)ccc1OCC(=O)Nc1ccc(C)cc1`, the IC50 in [12] was 35.9 µM (inactive); in [15], 35.9 µM (inactive); in assay [16], 8.04 µM (active).

`Cc1cccc2cc(/C=N/Nc3ccc(C(=O)O)cc3)c(Cl)nc12`: the IC50 is 18.3 µM (active) in [20] and 27.4 µM (inactive) in [21].
